Results: patent publication US8106099B2, “Combination of phenylcarboxamides with blockers of the IKr channel and their use for the treatment of atrial arrhythmias” (Sanofi-Aventis Deutschland GmbH, priority 2003, dated 2012)
“Also recorded” adds a separate entry of the source.

Tests used:
[1] = tested on: normal and remodeled atria of goats; experiment: Investigation of the refractory period (AERP) in normal goats and in goats with remodeled atria; format: in vivo; conditions: for effect on the AERP in remodeled atrium compared with normal atrium: remodeled versus normal atrium
Protocol: Investigation of the Refractory Period in Normal Goats and in Goats with Remodeled Atria
This electrical remodeling, which reflects the situation in the patient, was achieved by repetitive atrial stimulations as published by Wijffels et al. (Atrial fibrillation begets atrial fibrillation. A study in awake chronical instrumented goats. Circulation 1995, 92, 1954-68).
In the monotherapy, 0.12 mg of ibutilide per kg of bodyweight was administered over the length of time of 60 minutes (0.002 mg per kg per minute).
A similar infusion scheme was carried out on 5 further animals with dofetilide instead of ibutilide. […] In the monotherapy, 0.12 mg of dofetilide per kg of bodyweight was administered over the length of time of 60 minutes (0.002 mg per kg per minute).

[2] = tested on: goats in persistent atrial fibrillation; experiment: Investigation of cardioversion and AFCL in chronically fibrillating goats (two goats); format: in vivo; conditions: for effect on the AFCL by the substance on its own (in words) / cardioversion / termination of persistent fibrillation by the substance on its own: persistent AF goat model; for cardioversion / termination of persistent fibrillation by the substance on its own: example 1 at 0.1-10 mg/kg/h in the goat of table 4
Protocol: Investigation of Cardioversion in Chronically Fibrillating Goats
Experiments were carried out on two goats which were in persistent atrial fibrillation of more than 45 days.
The measurements of the AFCL and of the cardioversion were carried out successively.

SMILES	prolongation of the AERP ([1]; remodeled atria, n=5 goats, dofetilide study) [ms]	effect on the AERP in remodeled atrium compared with normal atrium [1]	effect on the AFCL by the substance on its own (in words) [2]	cardioversion / termination of persistent fibrillation by the substance on its own [2]	prolongation of the AERP ([1]; normal atria, n=5 goats, dofetilide study) [ms]	prolongation of the AERP ([1]; normal atria, n=7 goats, ibutilide study, relative to control before administration) [ms]	effective atrial refractory period (AERP), mean value ± SD ([1]; remodeled atria (induced AF 1 to 4 days), 7 goats, cycle length 400 ms, same infusion scheme with ibutilide) [ms]	doses of the compound of example 1 that brought about cardioversion / termination of the atrial fibrillation ([2]; goat of table 3, monotherapy, or combination with ibutilide 2 mg/kg)	dose of the Kv1.5 blocker of example 1 leading to cardioversion / termination of persistent fibrillation ([2]; summary in description, combination with very low doses (for example 10 μg/kg) of the IKr channel blocker) [mg/kg]	prolongation of the AERP ([1]; remodeled atria, n=7 goats, ibutilide study) [ms]	effect on the AFCL by the substance on its own (in words) ([2]; listed as ibutilide)
CN(CCOc1ccc(NS(C)(=O)=O)cc1)CCc1ccc(NS(C)(=O)=O)cc1 [Dofetilide]	7	markedly lower	slight prolongation	a cardioversion does not occur; also recorded: not to a termination of the fibrillation	–	–	–	–	–	–	–
COc1ccc(CC(=O)NCc2ccccc2-c2ccccc2C(=O)NCCc2cccnc2)cc1 [Example 1, 2′-{[2-(4-Methoxyphenyl)acetylamino]methyl}biphenyl-2-carboxylic acid (2-pyridin-3-ylethyl)amide]	–	markedly greater	dose-dependent increase	not to cardioversion	51	47	160 ± 16	10 mg per kg of bodyweight per ho	10	–	–
CCCCCCCN(CC)CCCC(O)c1ccc(NS(C)(=O)=O)cc1.O=C(O)/C=C/C(=O)O (centres unmarked) [Ibutilide]	–	markedly lower	very small increase	not to a termination of the fibrillation	–	–	–	–	–	5	slight prolongation
